Laboratory results as given in PubChem BioAssay (NCI).
“And” between values parts separate entries of the source, which are not always exact repeats. Identical values can stand only once.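 Following 48 hours of exposure in 96-well plates, responses at five concentrations were used to interpolate endpoints linearly. Abbreviation: GI50, concentration required for 50% inhibition of growth. At the TGI there is no net growth.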

What was measured:
Assay in all cases: inhibition of tumour cell growth, NCI panel, 48 h
SN12C renal = system: SN12C renal
MCF7 breast = system: MCF7 breast
MOLT-4 leukemia = system: MOLT-4 leukemia
ACHN renal = system: ACHN renal
OVCAR-4 ovarian = system: OVCAR-4 ovarian
UO-31 renal = system: UO-31 renal
MALME-3M melanoma = system: MALME-3M melanoma
A498 renal = system: A498 renal
NCI/ADR-RES ovarian = system: NCI/ADR-RES ovarian
HL-60(TB) leukemia = system: HL-60(TB) leukemia

`COc1cnccc1Nc1nc(-c2nn(Cc3c(F)cc(OCCO)cc3F)c3ccccc23)ncc1OC` was tested, and the GI50 (SN12C renal) was 1.53 µM, the TGI (SN12C renal) was 11.1 µM and the GI50 (MCF7 breast) was 1.65 µM. For the same molecule, the TGI (MCF7 breast) was 6.16 µM, the GI50 (MOLT-4 leukemia) was 1.55 µM and the TGI (MOLT-4 leukemia) was over 100 µM. It also gave a GI50 (ACHN renal) of 11.9 µM, a TGI (ACHN renal) of 30.5 µM and a GI50 (OVCAR-4 ovarian) of 1.74 µM. For the same molecule, the TGI (OVCAR-4 ovarian) was 3.68 µM, the GI50 (UO-31 renal) was 1.97 µM and the TGI (UO-31 renal) was 8.43 µM. The GI50 (MALME-3M melanoma) was 2.16 µM, the TGI (MALME-3M melanoma) was 5.88 µM and the GI50 (A498 renal) was 12.7 µM. It also gave a TGI (A498 renal) of 50.2 µM, a GI50 (NCI/ADR-RES ovarian) of 2.97 µM and a TGI (NCI/ADR-RES ovarian) of 16.5 µM. The GI50 (HL-60(TB) leukemia) was 1.42 µM and the TGI (HL-60(TB) leukemia) was over 100 µM.

`COc1ccc(-c2[nH]ncc2Nc2cc(OC)c(OC)c(OC)c2)cc1` showed a GI50 (SN12C renal) of 7.18 µM, a TGI (SN12C renal) of over 100 µM and a GI50 (MCF7 breast) of 0.736 µM. The TGI (MCF7 breast) was over 100 µM, the GI50 (MOLT-4 leukemia) was 2.12 µM and the TGI (MOLT-4 leukemia) was 63.7 µM. The GI50 (ACHN renal) was 10.3 µM, the TGI (ACHN renal) was over 100 µM and the GI50 (OVCAR-4 ovarian) was 5.01 µM. It also gave a TGI (OVCAR-4 ovarian) of over 100 µM, a GI50 (UO-31 renal) of 3.29 µM and a TGI (UO-31 renal) of over 100 µM. It also gave a GI50 (MALME-3M melanoma) of 2.04 µM, a TGI (MALME-3M melanoma) of over 26.1 µM and a GI50 (A498 renal) of 2.98 µM. For the same molecule, the TGI (A498 renal) was over 57.4 µM, the GI50 (NCI/ADR-RES ovarian) was 1.86 µM and the TGI (NCI/ADR-RES ovarian) was 25 µM. For the same molecule, the GI50 (HL-60(TB) leukemia) was 0.304 µM and the TGI (HL-60(TB) leukemia) was 1.57 µM.

In the case of `CCS(=O)(=O)c1ccc(OC)c(Nc2ncc(-c3cccc(F)c3)o2)c1`, the GI50 (SN12C renal) was over 25 µM, the TGI (SN12C renal) was over 25 µM and the GI50 (MCF7 breast) was over 25 µM. For the same molecule, the TGI (MCF7 breast) was over 25 µM, the GI50 (MOLT-4 leukemia) was over 25 µM and the TGI (MOLT-4 leukemia) was over 25 µM. The GI50 (ACHN renal) was over 25 µM, the TGI (ACHN renal) was over 25 µM and the GI50 (OVCAR-4 ovarian) was over 25 µM. For the same molecule, the TGI (OVCAR-4 ovarian) was over 25 µM, the GI50 (UO-31 renal) was over 25 µM and the TGI (UO-31 renal) was over 25 µM. It also gave a GI50 (MALME-3M melanoma) of over 25 µM, a TGI (MALME-3M melanoma) of over 25 µM and a GI50 (A498 renal) of 0.34 µM. For the same molecule, the TGI (A498 renal) was over 25 µM, the GI50 (NCI/ADR-RES ovarian) was over 25 µM and the TGI (NCI/ADR-RES ovarian) was over 25 µM. For the same molecule, the GI50 (HL-60(TB) leukemia) was over 25 µM and the TGI (HL-60(TB) leukemia) was over 25 µM.

For `COc1ccc2c(c1)nnc1c3cccnc3[nH]c21`, the GI50 (SN12C renal) was 1.63 µM and 1.68 µM, the TGI (SN12C renal) was 7.77 µM and 10.7 µM and the GI50 (MCF7 breast) was 0.228 µM and 0.209 µM. For the same molecule, the TGI (MCF7 breast) was 0.966 µM and 1.41 µM, the GI50 (MOLT-4 leukemia) was 0.0299 µM and the TGI (MOLT-4 leukemia) was 0.219 µM. For the same molecule, the GI50 (ACHN renal) was 0.231 µM, the TGI (ACHN renal) was over 100 µM and the GI50 (OVCAR-4 ovarian) was 1.41 µM and 2.58 µM. The TGI (OVCAR-4 ovarian) was 16.2 µM and > 100 µM, the GI50 (UO-31 renal) was 0.122 µM and 0.172 µM and the TGI (UO-31 renal) was 1.11 µM and 2.17 µM. The GI50 (MALME-3M melanoma) was 1.06 µM and 0.926 µM, the TGI (MALME-3M melanoma) was 4.63 µM and 4.18 µM and the GI50 (A498 renal) was 8 µM and 2.48 µM. The TGI (A498 renal) was 19.2 µM and 21.3 µM, the GI50 (NCI/ADR-RES ovarian) was 1.79 µM and 1.92 µM and the TGI (NCI/ADR-RES ovarian) was 12.5 µM and 18.9 µM. The GI50 (HL-60(TB) leukemia) was 0.158 µM and 0.243 µM.

Molecule `CSc1nc(SC)c2c(C)cn(COCCOC(=O)c3ccccc3)c2n1` has a TGI (SN12C renal) of over 100 µM, a TGI (MCF7 breast) of over 100 µM and a TGI (MOLT-4 leukemia) of over 100 µM. For the same molecule, the TGI (ACHN renal) was over 100 µM, the TGI (OVCAR-4 ovarian) was over 100 µM and the TGI (UO-31 renal) was over 100 µM. It also gave a TGI (MALME-3M melanoma) of over 100 µM, a TGI (A498 renal) of over 100 µM and a TGI (NCI/ADR-RES ovarian) of over 100 µM. The TGI (HL-60(TB) leukemia) was over 100 µM.

With `N=C(CC(=O)Nc1ccccn1)c1ccccc1` the TGI (SN12C renal) was over 100 µM, the TGI (MCF7 breast) was over 100 µM and the TGI (MOLT-4 leukemia) was over 100 µM. For the same molecule, the TGI (ACHN renal) was over 100 µM, the TGI (OVCAR-4 ovarian) was over 100 µM and the TGI (UO-31 renal) was over 100 µM. The TGI (MALME-3M melanoma) was over 100 µM, the TGI (A498 renal) was over 100 µM and the TGI (NCI/ADR-RES ovarian) was over 100 µM. The TGI (HL-60(TB) leukemia) was over 100 µM.

For `O=C1NC(=NCCc2ccc(Br)cc2)S/C1=C\c1ccc2ncccc2c1`, the GI50 (SN12C renal) was over 25 µM, the TGI (SN12C renal) was over 25 µM and the GI50 (MCF7 breast) was 22.1 µM. For the same molecule, the TGI (MCF7 breast) was over 25 µM, the GI50 (MOLT-4 leukemia) was 19.7 µM and the TGI (MOLT-4 leukemia) was over 25 µM. For the same molecule, the GI50 (ACHN renal) was over 25 µM, the TGI (ACHN renal) was over 25 µM and the GI50 (OVCAR-4 ovarian) was 10.5 µM. It also gave a TGI (OVCAR-4 ovarian) of over 25 µM, a GI50 (UO-31 renal) of over 25 µM and a TGI (UO-31 renal) of over 25 µM. For the same molecule, the GI50 (MALME-3M melanoma) was over 21.7 µM, the TGI (MALME-3M melanoma) was over 25 µM and the GI50 (A498 renal) was 6.29 µM. For the same molecule, the TGI (A498 renal) was over 25 µM, the GI50 (NCI/ADR-RES ovarian) was over 20.6 µM and the TGI (NCI/ADR-RES ovarian) was over 25 µM. It also gave a GI50 (HL-60(TB) leukemia) of over 25 µM and a TGI (HL-60(TB) leukemia) of over 25 µM.

Work on `NS(=O)(=O)c1ccc(N=Nc2c[nH]c(=O)c(O)c2)cc1` yielded a TGI (SN12C renal) of over 100 µM, a TGI (MCF7 breast) of over 100 µM and a TGI (MOLT-4 leukemia) of over 100 µM. It also gave a TGI (ACHN renal) of over 100 µM, a TGI (OVCAR-4 ovarian) of over 100 µM and a TGI (UO-31 renal) of over 100 µM. The TGI (MALME-3M melanoma) was 82.4 µM, the TGI (A498 renal) was over 100 µM and the TGI (NCI/ADR-RES ovarian) was over 100 µM. It also gave a TGI (HL-60(TB) leukemia) of over 100 µM.

For `CN(CCCCCl)P(=O)(OCc1ccc([N+](=O)[O-])o1)OCC1OC(n2cc([N+](=O)[O-])c(=O)[nH]c2=O)CC1O` (centres undefined), the GI50 (SN12C renal) was 51.9 µM, the TGI (SN12C renal) was over 100 µM and the GI50 (MCF7 breast) was 22.8 µM. The TGI (MCF7 breast) was over 100 µM, the GI50 (MOLT-4 leukemia) was 25.1 µM and the TGI (MOLT-4 leukemia) was over 100 µM. The GI50 (ACHN renal) was 17.5 µM, the TGI (ACHN renal) was over 100 µM and the GI50 (OVCAR-4 ovarian) was 9.75 µM. It also gave a TGI (OVCAR-4 ovarian) of 84.8 µM, a GI50 (UO-31 renal) of over 100 µM and a TGI (UO-31 renal) of over 100 µM. The GI50 (MALME-3M melanoma) was over 100 µM, the TGI (MALME-3M melanoma) was over 100 µM and the GI50 (A498 renal) was 29.6 µM. For the same molecule, the TGI (A498 renal) was over 100 µM, the GI50 (NCI/ADR-RES ovarian) was over 100 µM and the TGI (NCI/ADR-RES ovarian) was over 100 µM. It also gave a GI50 (HL-60(TB) leukemia) of over 100 µM and a TGI (HL-60(TB) leukemia) of over 100 µM.

Work on `COc1ccc2c(c1)C(=O)c1c-2n(CCCN(C)C)c(=O)c2cc([N+](=O)[O-])ccc12` yielded a GI50 (SN12C renal) of under 0.01 µM, a TGI (SN12C renal) of 10.7 µM and a GI50 (MCF7 breast) of under 0.01 µM. It also gave a TGI (MCF7 breast) of 0.338 µM, a GI50 (MOLT-4 leukemia) of under 0.01 µM and a TGI (MOLT-4 leukemia) of 0.282 µM. It also gave a GI50 (ACHN renal) of under 0.01 µM, a TGI (ACHN renal) of 0.103 µM and a GI50 (OVCAR-4 ovarian) of 0.0515 µM. The TGI (OVCAR-4 ovarian) was 9.37 µM, the GI50 (UO-31 renal) was under 0.01 µM and the TGI (UO-31 renal) was 0.0294 µM. For the same molecule, the GI50 (MALME-3M melanoma) was 0.0207 µM, the TGI (MALME-3M melanoma) was 0.892 µM and the GI50 (A498 renal) was 0.036 µM. For the same molecule, the TGI (A498 renal) was 0.694 µM, the GI50 (NCI/ADR-RES ovarian) was under 0.01 µM and the TGI (NCI/ADR-RES ovarian) was 0.188 µM. It also gave a GI50 (HL-60(TB) leukemia) of under 0.01 µM and a TGI (HL-60(TB) leukemia) of 0.245 µM.

`CCC(=O)Nc1nnc(Cc2ccc(OC)c(OC)c2)s1` showed a GI50 (SN12C renal) of over 100 µM, a TGI (SN12C renal) of over 100 µM and a GI50 (MCF7 breast) of over 100 µM. It also gave a TGI (MCF7 breast) of over 100 µM, a GI50 (MOLT-4 leukemia) of over 100 µM and a TGI (MOLT-4 leukemia) of over 100 µM. For the same molecule, the GI50 (ACHN renal) was over 100 µM, the TGI (ACHN renal) was over 100 µM and the GI50 (OVCAR-4 ovarian) was over 100 µM. For the same molecule, the TGI (OVCAR-4 ovarian) was over 100 µM, the GI50 (UO-31 renal) was over 100 µM and the TGI (UO-31 renal) was over 100 µM. For the same molecule, the GI50 (MALME-3M melanoma) was over 100 µM, the TGI (MALME-3M melanoma) was over 100 µM and the GI50 (A498 renal) was over 100 µM. For the same molecule, the TGI (A498 renal) was over 100 µM, the GI50 (NCI/ADR-RES ovarian) was over 100 µM and the TGI (NCI/ADR-RES ovarian) was over 100 µM. The GI50 (HL-60(TB) leukemia) was over 100 µM and the TGI (HL-60(TB) leukemia) was over 100 µM.
